Reference: PubChem BioAssay (NCI)
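Interpolation was linear, between the two tested concentrations surrounding the appropriate level; five concentrations were tested over 48 hours in 96-well plates. At the TGI there is no net growth.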

Assays:
Assay in all cases: NCI anticancer screen, dose series, 48 h
786-0 renal = test system: 786-0 renal
A498 renal = test system: A498 renal
A549 NSCLC = test system: A549 NSCLC
ACHN renal = test system: ACHN renal
BT-549 breast = test system: BT-549 breast
CAKI-1 renal = test system: CAKI-1 renal
CCRF-CEM leukemia = test system: CCRF-CEM leukemia
COLO 205 colon = test system: COLO 205 colon
DU-145 prostate = test system: DU-145 prostate
EKVX NSCLC = test system: EKVX NSCLC
HCC-2998 colon = test system: HCC-2998 colon
HCT-116 colon = test system: HCT-116 colon
HCT-15 colon = test system: HCT-15 colon
HL-60(TB) leukemia = test system: HL-60(TB) leukemia
HOP-62 NSCLC = test system: HOP-62 NSCLC
HOP-92 NSCLC = test system: HOP-92 NSCLC
HS 578T breast = test system: HS 578T breast
HT29 colon = test system: HT29 colon
IGROV1 ovarian = test system: IGROV1 ovarian
K-562 leukemia = test system: K-562 leukemia
KM12 colon = test system: KM12 colon
LOX IMVI melanoma = test system: LOX IMVI melanoma
M14 melanoma = test system: M14 melanoma
MCF7 breast = test system: MCF7 breast
MDA-MB-231 breast = test system: MDA-MB-231 breast
MDA-MB-435 = test system: MDA-MB-435
MOLT-4 leukemia = test system: MOLT-4 leukemia
NCI-H226 lung = test system: NCI-H226 lung
NCI-H23 lung = test system: NCI-H23 lung
NCI-H522 lung = test system: NCI-H522 lung
NCI/ADR-RES ovarian = test system: NCI/ADR-RES ovarian
OVCAR-3 ovarian = test system: OVCAR-3 ovarian
OVCAR-4 ovarian = test system: OVCAR-4 ovarian
OVCAR-5 ovarian = test system: OVCAR-5 ovarian
OVCAR-8 ovarian = test system: OVCAR-8 ovarian
PC-3 prostate = test system: PC-3 prostate
RPMI-8226 leukemia = test system: RPMI-8226 leukemia
RXF 393 renal = test system: RXF 393 renal
SF-268 CNS = test system: SF-268 CNS
SF-295 CNS = test system: SF-295 CNS
SF-539 CNS = test system: SF-539 CNS
SK-MEL-2 melanoma = test system: SK-MEL-2 melanoma
SK-MEL-28 melanoma = test system: SK-MEL-28 melanoma
SK-MEL-5 melanoma = test system: SK-MEL-5 melanoma
SK-OV-3 ovarian = test system: SK-OV-3 ovarian
SN12C renal = test system: SN12C renal
SNB-19 CNS = test system: SNB-19 CNS
SNB-75 CNS = test system: SNB-75 CNS
SW-620 colon = test system: SW-620 colon
T-47D breast = test system: T-47D breast
TK-10 renal = test system: TK-10 renal
U251 CNS = test system: U251 CNS
UACC-257 melanoma = test system: UACC-257 melanoma
UACC-62 melanoma = test system: UACC-62 melanoma
UO-31 renal = test system: UO-31 renal

Measured: TGI

CC1=NN(c2nc(N)nc(CO)n2)C(C)(C)C1
> 100 µM: all assays above
